Tests used:
[1] = PAMPA permeability
[2] = Plasma stability, human
[3] = Plasma stability, mouse
[4] = Plasma protein binding, human
[5] = Plasma protein binding, mouse
[6] = Hepatic microsome stability, human; settings: for Hepatic Microsome Stability: human (first or only value of cell)
[7] = Hepatic microsome stability, mouse; settings: for Hepatic Microsome Stability: mouse (first or only value of cell)
[8] = biological target: T1, human PMI (phosphomannose isomerase) (Homo sapiens, UniProt P34949)
T1 sequence (P34949 1-423): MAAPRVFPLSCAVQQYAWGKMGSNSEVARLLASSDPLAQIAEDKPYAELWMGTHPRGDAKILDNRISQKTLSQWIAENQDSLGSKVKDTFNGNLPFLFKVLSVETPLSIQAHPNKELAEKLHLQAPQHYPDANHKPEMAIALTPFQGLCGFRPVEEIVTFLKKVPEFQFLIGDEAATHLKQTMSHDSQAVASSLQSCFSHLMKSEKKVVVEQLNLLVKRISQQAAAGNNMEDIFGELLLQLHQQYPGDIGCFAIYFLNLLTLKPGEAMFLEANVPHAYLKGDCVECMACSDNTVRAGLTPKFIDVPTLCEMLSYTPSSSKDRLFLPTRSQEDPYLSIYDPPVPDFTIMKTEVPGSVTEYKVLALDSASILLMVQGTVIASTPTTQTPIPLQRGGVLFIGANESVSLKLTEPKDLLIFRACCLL

[9] = biological target: T2, human PMM2 (Homo sapiens, UniProt O15305)
T2 sequence (O15305 1-246): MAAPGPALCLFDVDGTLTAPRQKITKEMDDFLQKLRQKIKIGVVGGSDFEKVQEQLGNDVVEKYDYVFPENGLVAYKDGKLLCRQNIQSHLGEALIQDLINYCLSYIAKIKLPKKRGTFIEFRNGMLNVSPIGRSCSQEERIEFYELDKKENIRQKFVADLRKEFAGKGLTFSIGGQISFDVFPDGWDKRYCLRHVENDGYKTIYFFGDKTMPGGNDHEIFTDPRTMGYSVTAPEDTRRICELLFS

[10] = biological target: T3, TNAP (Homo sapiens, UniProt P05186)
T3 sequence (P05186 18-502 limits assumed): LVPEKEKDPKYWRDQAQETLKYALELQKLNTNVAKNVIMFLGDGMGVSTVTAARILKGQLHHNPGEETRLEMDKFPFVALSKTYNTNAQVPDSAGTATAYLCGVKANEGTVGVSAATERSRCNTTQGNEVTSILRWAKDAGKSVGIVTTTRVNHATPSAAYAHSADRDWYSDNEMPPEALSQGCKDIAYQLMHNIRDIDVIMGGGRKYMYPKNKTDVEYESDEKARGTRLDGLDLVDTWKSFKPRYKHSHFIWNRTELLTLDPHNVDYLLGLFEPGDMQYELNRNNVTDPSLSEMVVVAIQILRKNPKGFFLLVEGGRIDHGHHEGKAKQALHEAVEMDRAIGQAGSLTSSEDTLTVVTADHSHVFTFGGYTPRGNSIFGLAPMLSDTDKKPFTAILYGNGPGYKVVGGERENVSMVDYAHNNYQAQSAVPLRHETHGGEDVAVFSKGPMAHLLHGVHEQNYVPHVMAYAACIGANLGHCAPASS

[11] = tested on: mevalonate pathway in streptococcus pneumonia; settings: ref PubChem AID1028; cited from earlier work
[12] = biological target: T2, human PMM2; assay: biochemical
[13] = 1× PBS, pH 7.4 alone, human column (second value of cell)
[14] = human plasma: 1× PBS, pH 7.4, 1:1 (first value of cell)
[15] = 1× PBS, pH 7.4 alone, mouse column (second value of cell)
[16] = mouse plasma: 1× PBS, pH 7.4, 1:1 (first value of cell)

Compound | Papp ([1]; PAMPA Permeability, donor pH 5.0, acceptor pH 7.4) | Papp ([1]; PAMPA Permeability, donor pH 6.2, acceptor pH 7.4) | Papp ([1]; pH 7.4, PAMPA Permeability, donor pH 7.4, acceptor pH 7.4) | Plasma Stability [2, 13] | Plasma Stability [2, 14] | Plasma Stability [3, 15] | Plasma Stability [3, 16] | Plasma Protein Binding ([4]; 1 μM) | Plasma Protein Binding ([4]; 10 μM) | Plasma Protein Binding ([5]; 1 μM) | Plasma Protein Binding ([5]; 10 μM) | Hepatic Microsome Stability [6] | Hepatic Microsome Stability (NADPH minus) ([6]; human, NADPH minus (second value of cell)) | Hepatic Microsome Stability [7] | Hepatic Microsome Stability (NADPH minus) ([7]; mouse, NADPH minus (second value of cell)) | Activity at PMI (in words) [8] | Activity at PMM2 (in words) [9] | Inhibitory activity against TNAP (in words) [10] | Activity in screen for inhibitors of the mevalonate pathway (in words) [11] | IC50 [12]
COC(=O)c1cccc(-n2sc3ccccc3c2=O)c1 [Compound 2o] | 1290 ×10⁻⁶ cm/s | 1230 ×10⁻⁶ cm/s | 1300 ×10⁻⁶ cm/s | 49.3 % Remaining at 3hrs | 15.4 % Remaining at 3hrs | 55.2 % Remaining at 3hrs | 59.6 % Remaining at 3hrs | 41.2 % Bound | 57.3 % Bound | 48.0 % Bound | 37.6 % Bound | 72.4 % Remaining at 1hr | 31.5 % Remaining at 1hr | 45.9 % Remaining at 1hr | 44.6 % Remaining at 1hr | – | – | – | – | –
O=c1c2ccccc2sn1-c1ccc(F)c(Cl)c1 [Compound 2m] | – | – | – | – | – | – | – | – | – | – | – | – | – | – | – | inactive | inactive | – | – | –
O=C(O)c1cccc(-n2sc3ccccc3c2=O)c1 [Compound 2n] | – | – | – | 55.5 % Remaining at 3hrs | 50.2 % Remaining at 3hrs | 71.2 % Remaining at 3hrs | 100 % Remaining at 3hrs | – | n.d. / 59.4 % Bound | 18.8 % Bound | 30.1 % Bound | 100 % Remaining at 1hr | – | 100 % Remaining at 1hr | – | – | no activity | – | – | –
CCOC(=O)c1ccc(-n2sc3ccccc3c2=O)cc1 [Compound 2p] | – | – | – | – | – | – | – | – | – | – | – | – | – | – | – | essentially devoid of activity | essentially devoid of activity | – | – | –
CCN(CC)S(=O)(=O)c1cccc(-n2sc3ccccc3c2=O)c1 [Compound 2t] | – | – | – | – | – | – | – | – | – | – | – | – | – | – | – | devoid of activity | devoid of activity | – | – | –
CN(C)S(=O)(=O)c1cccc(-n2sc3ccccc3c2=O)c1 [Compound 2s] | – | – | – | 32.3 % Remaining at 3hrs | 11.4 % Remaining at 3hrs | 40.0 % Remaining at 3hrs | 65.3 % Remaining at 3hrs | – | n.d. / 56.5 % Bound | 35.6 % Bound | 34.1 % Bound | 72.4 % Remaining at 1hr | – | 100 % Remaining at 1hr | – | – | – | – | – | –
CN(C)C(=O)c1cccc(-n2sc3ccccc3c2=O)c1 [Compound 2q] | – | – | – | 60.0 % Remaining at 3hrs | 18.9 % Remaining at 3hrs | 56.9 % Remaining at 3hrs | 76.2 % Remaining at 3hrs | 41.3 % Bound | – | 48.0 % Bound | 46.7 % Bound | 45.7 % Remaining at 1hr | – | 56.6 % Remaining at 1hr | – | no activity | no activity | devoid of any significant inhibitory activity | weak activity | > 50 µM

Reference: article PMC4170737 (Bioorganic & medicinal chemistry letters, 2014)
